Experimental findings from patent publication US20250346579A1, “PYRIDAZINONE COMPOUND AND PREPARATION METHOD THEREFOR, PHARMACEUTICAL COMPOSITION THEREOF, AND APPLICATION THEREOF” (CHINA PHARMACEUTICAL UNIVERSITY, priority 2021, published 2025) are described below.

pIC50: −log10 of the molar value.

The first experiment has as its target T1, PARP7 (Homo sapiens, UniProt Q7Z3E1).
T1 construct: purchased BPS Bioscience
T1 sequence (Q7Z3E1 1-657): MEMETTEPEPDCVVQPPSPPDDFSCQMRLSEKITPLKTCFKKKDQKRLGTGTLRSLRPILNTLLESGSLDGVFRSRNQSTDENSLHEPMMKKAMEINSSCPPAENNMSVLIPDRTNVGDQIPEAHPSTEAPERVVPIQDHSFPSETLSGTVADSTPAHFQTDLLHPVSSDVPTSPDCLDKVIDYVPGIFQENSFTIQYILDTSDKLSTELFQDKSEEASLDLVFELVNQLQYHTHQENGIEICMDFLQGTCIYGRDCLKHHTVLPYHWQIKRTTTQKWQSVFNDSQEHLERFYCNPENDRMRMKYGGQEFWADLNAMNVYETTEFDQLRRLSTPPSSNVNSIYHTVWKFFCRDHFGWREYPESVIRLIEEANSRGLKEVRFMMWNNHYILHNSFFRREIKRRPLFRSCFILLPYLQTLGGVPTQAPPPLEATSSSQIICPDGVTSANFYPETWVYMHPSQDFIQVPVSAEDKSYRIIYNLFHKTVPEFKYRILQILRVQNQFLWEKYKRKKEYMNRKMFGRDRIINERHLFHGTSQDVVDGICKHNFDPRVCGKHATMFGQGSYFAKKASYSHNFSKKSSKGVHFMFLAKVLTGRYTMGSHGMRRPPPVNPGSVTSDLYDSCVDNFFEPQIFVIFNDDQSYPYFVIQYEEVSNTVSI
As to the kind of experiment: Inhibitory activity of compounds on PARP7 enzyme (PARP7 Chemiluminescent Assay Kit). Conditions: chemiluminescence, symbols defined as IC50 classes, read-out: 100 nM Inhibition Rate. It is filed as biochemical. Here is the method: Experimental materials: PARP7 Chemiluminescent Assay Kit, BPS Bioscience; DMSO, China National Pharmaceutical Group, Nivo, PerkinElmer.
(1) Preparation of Solutions and Buffers:
Preparation of 10×PBS: 720 mg of KH2PO4, 45 g of NaCl and 5.311 g of Na2HPO4·12H2O were weighed respectively and dissolved in 500 mL of deionized water, a system pH value was adjusted to 7.4, sterilization was performed at 121° C. for 30 min, and the system after cooling was placed at 4° C. for later use.
Preparation of 1×PBS: 10×PBS was diluted 10 times with deionized water, that is, 9 parts of deionized water was added to 1 part of 10×PBS for dilution.
Preparation of wash buffer: 1×PBS contained 0.05% Tween-20.
Preparation of 1×PARP buffer (prepared freshly before use): 10×PARP buffer was diluted 10 times with deionized water and placed on ice for later use.
(2) Preparation of Compound Working Solution Concentration:
According to test requirements, a compound to be tested is diluted with 100% DMSO to a desired concentration, and then diluted 10 times with 1×PARP buffer to prepare a 10× compound working solution.
a. 5× histone mixture was thawed on ice one day prior to the experiment;
b. preparation of 1× histone mixture: 1× histone mixture was prepared through the 5× histone mixture by using 1×PBS; and 25 μL of 1× histone mixture was taken from each well and transferred into a test well plate and incubated overnight at 4° C.;
c. 100 μL of Blocking buffer was taken from each well and added to the test well plate and incubated for 90 min at 25° C.;
d. after the incubation was completed, the liquid in the test well plate was spin-dried, and the test well plate was washed repeatedly for 3 times;
e. 2.5 μL of the compound working solution was taken from each well and added to the test well plate according to an experimental layout diagram; and 1×PARP buffer with a corresponding volume of 10% DMSO was added to positive control wells (Positive Control), and 1×PARP buffer of a corresponding volume was added to blank control wells (Blank);
f. after the enzyme was completely dissolved, an enzyme stock solution was diluted with 1×PARP buffer to 6 ng/μL;
g. 10 μL of enzyme solution was taken from each well and added to the test well plate, the blank control wells were added with the corresponding volume of 1×PARP buffer, and in which case, the enzyme amount was 60 ng per well. Note: this step needs to be performed on ice;
h. 12.5 μL of master mixture was added to each well of the test well plate (12.5 μL master mixture included 1.25 μL of 10×PARP buffer, 1.25 μL of Opti-PARP 10× Assay mixture and 10 μL of water); the test well plate was sealed and incubated at 25° C. for 60 min;
i. after the incubation was completed, the liquid in the test well plate was spin-dried, and the test well plate was washed repeatedly for 3 times;
j. Streptavidin-HRP in a kit was diluted 50 times with a Blocking buffer, 25 μL was taken from each well and added to the test well plate, and incubated at 25° C. for 30 min;
k. after the incubation was completed, the liquid in the test well plate was spin-dried, and the test well plate was washed repeatedly for 3 times;
l. ELISA ECL Substrate A and ELISA ECL Substrate B in the kit was mixed to obtain a mixed solution according to a ratio of 1:1, 50 μL of the mixed solution was added to each well of the test well plate, Nivo was used to perform Luminescence detection immediately, and a luminous value (RLU) was read; and
m. calculation of an enzyme rate: Enzyme Activity=(RLU(Sample)−RLU(Blank))/(RLU(Pos.Ctrl)−RLU(Blank))×100%; and enzyme inhibition rate=1−% Enzyme Activity, and specific results were shown in Table 1 below.
On to `C[C@@H](CN1CC(C(=O)N2CCN(c3ncc(-c4ccc(C(F)(F)F)cc4)cn3)CC2)C1)Nc1cn[nH]c(=O)c1C(F)(F)F` [I-A-2, (S)-4-(trifluoromethyl)-5-((1-(3-(4-(5-(4-(trifluoromethyl)phenyl)pyrimidin-2-yl)piperazine-1-carbonyl)azetidin-1-yl)propan-2-yl)amino)pyridazin-3(2H)-one], for which the pIC50 is 6.30 to 7.00.

On to `C[C@@H](CN1CC(C(=O)N2CCN(c3ncc(C#N)cn3)CC2)C1)Nc1cn[nH]c(=O)c1C(F)(F)F` [I-A-3, (S)-2-(4-(1-(2-((6-oxo-5-(trifluoromethyl)-1,6-dihydropyridazin-4-yl)amino)propyl)azetidine-3-carbonyl)piperazin-1-yl)pyrimidine-5-carbonitrile], for which the pIC50 was above 7.00. As to `C[C@@H](CN1CC(C(=O)N2CCN(c3ncc(S(C)(=O)=O)cn3)CC2)C1)Nc1cn[nH]c(=O)c1C(F)(F)F` [I-A-4, (S)-5-((1-(3-(4-(5-(methylsulfonyl)pyrimidin-2-yl)piperazine-1-carbonyl)azetidin-1-yl)propan-2-yl)amino)-4-(trifluoromethyl)pyridazin-3(2H)-one], the pIC50 is above 7.00. For `C[C@@H](CN1CC(C(=O)N2CCN(c3ncc(Cl)cn3)CC2)C1)Nc1cn[nH]c(=O)c1C(F)(F)F` [I-A-5, (S)-5-((1-(3-(4-(5-chloropyrimidin-2-yl)piperazine-1-carbonyl)azetidin-1-yl)propan-2-yl)amino)-4-(trifluoromethyl)pyridazin-3(2H)-one], the pIC50 was above 7.00. Regarding `Cc1cnc(N2CCN(C(=O)C3CN(C[C@H](C)Nc4cn[nH]c(=O)c4C(F)(F)F)C3)CC2)nc1` [I-A-6, (S)-5-((1-(3-(4-(5-methylpyrimidin-2-yl)piperazine-1-carbonyl)azetidin-1-yl)propan-2-yl)amino)-4-(trifluoromethyl)pyridazin-3(2H)-one], the pIC50 is above 7.00. On the same count and under the same terms, under `C[C@@H](CN1CC(C(=O)N2CCN(c3ncc(Br)cn3)CC2)C1)Nc1cn[nH]c(=O)c1C(F)(F)F` [I-A-7, (S)-5-((1-(3-(4-(5-bromopyrimidin-2-yl)piperazine-1-carbonyl)azetidin-1-yl)propan-2-yl)amino)-4-(trifluoromethyl)pyridazin-3(2H)-one] stands above 7.00.

For the molecule `C[C@@H](CN1CC(C(=O)N2CCN(c3ncc(F)cn3)CC2)C1)Nc1cn[nH]c(=O)c1C(F)(F)F` [I-A-8, (S)-5-((1-(3-(4-(5-fluoropyrimidin-2-yl)piperazine-1-carbonyl)azetidin-1-yl)propan-2-yl)amino)-4-(trifluoromethyl)pyridazin-3(2H)-one], the pIC50 is 6.30 to 7.00.

For `COc1cnc(N2CCN(C(=O)C3CN(C[C@H](C)Nc4cn[nH]c(=O)c4C(F)(F)F)C3)CC2)nc1` [I-A-9, (S)-5-((1-(3-(4-(5-methoxypyrimidin-2-yl)piperazine-1-carbonyl)azetidin-1-yl)propan-2-yl)amino)-4-(trifluoromethyl)pyridazin-3(2H)-one], the pIC50 was above 7.00. With `C[C@@H](CN1CC(C(=O)N2CCN(c3ccc(C(F)(F)F)cn3)CC2)C1)Nc1cn[nH]c(=O)c1C(F)(F)F` [I-A-10, (S)-4-(trifluoromethyl)-5-((1-(3-(4-(5-(trifluoromethyl)pyridin-2-yl)piperazine-1-carbonyl)azetidin-1-yl)propan-2-yl)amino)pyridazin-3(2H)-one], the pIC50 was above 7.00.

`C[C@@H](CN1CC(C(=O)N2CCN(c3ccc(C(F)(F)F)cc3)CC2)C1)Nc1cn[nH]c(=O)c1C(F)(F)F` [I-A-11]: the pIC50 was 6.30 to 7.00. Take `C[C@@H](CN1CC(C(=O)N2CCN(c3cccc4c3oc3ccccc34)CC2)C1)Nc1cn[nH]c(=O)c1C(F)(F)F` [I-A-12]: the pIC50 is 6.30 to 7.00. For `C[C@@H](CN1CC(C(=O)N2CCN(c3nccc(C(F)(F)F)n3)CC2)C1)Nc1cn[nH]c(=O)c1C(F)(F)F` [I-A-13, (S)-4-(trifluoromethyl)-5-((1-(3-(4-(4-(trifluoromethyl)pyrimidin-2-yl)piperazine-1-carbonyl)azetidin-1-yl)propan-2-yl)amino)pyridazin-3(2H)-one], the pIC50 was above 7.00.

Still in this experiment, the particulars now being: summary of Table 1, read-out: enzyme inhibition IC50 values.
With `C[C@@H](CN1CC(C(=O)N2CCN(c3nccc(C(F)(F)F)n3)CC2)C1)Nc1cn[nH]c(=O)c1C(F)(F)F` [I-A-13, (S)-4-(trifluoromethyl)-5-((1-(3-(4-(4-(trifluoromethyl)pyrimidin-2-yl)piperazine-1-carbonyl)azetidin-1-yl)propan-2-yl)amino)pyridazin-3(2H)-one], the pIC50 was above 7.00.
